{
  "source": "patent US8466172B2",
  "about": "“Stabilization of hypoxia inducible factor (HIF) alpha” (FibroGen, Inc., priority 2001, dated 2013)",
  "key": {"[1]": {"system": "HIF-regulated genes", "assay": "Expression of HIF-regulated genes in vivo, Murine genome U74AV2 array", "parameters": "species or system mouse", "conditions": "100 mg/kg oral gavage", "method": "Twenty four Swiss Webster male mice (30-32 g) were obtained from Simonsen, Inc., and treated by oral gavage with a 4 ml/kg volume of either 0.5% CMC (Sigma-Aldrich) (0 mg/kg/day) or […] Compound A (25 mg/ml in 0.5% CMC) (100 mg/kg). At 4, 8, 16, 24, 48, or 72 hours after the final dose, animals were anesthetized with isoflurane and a blood sample was collected from the abdominal vein. The blood sample was collected into a MICROTAINER serum separator tube (Becton-Dickinson, Franklin Lakes N.J.), incubated at room temperature for 30 minutes, centrifuged at 8,000 rpm at 4° C. for 10 min, and cell pellet was resuspended in […] solution (Ambion) and stored at −80° C. The mice were then sacrificed and tissue samples of kidney, liver, brain, lung, and heart were isolated and stored in […] solution (Ambion) at −80° C.\nRNA isolation was carried out using the following protocol. […] The RNA was eluted into 80 μL of water and quantitated with RIBOGREEN reagent (Molecular Probes, Eugene Oreg.). […] The absorbance at 260 and 280 nm was measured to determine RNA purity and concentration.\nAlternatively, tissue samples were diced and homogenized in TRIZOL reagent (Invitrogen Life Technologies, Carlsbad Calif.) using a rotor-stator POLYTRON homogenizer (Kinematica). […] The absorbance at 260 and 280 nm was measured to determine RNA purity and concentration. […]"}, "[2]": {"system": "vascular endothelial growth factor (VEGF)", "assay": "VEGF expression in conditioned media, QUANTIKINE immunoassay", "type": "cell-based, human", "conditions": "HFF, 293A and Hep3B cells", "method": "When cell layers reached confluence, the media was replaced with OPTI-MEM media (Invitrogen Life Technologies, Carlsbad Calif.) and cell layers were incubated for approximately 24 hours in 20% O2, 5% CO2 at 37° C. Compound of the invention (one of compounds A to O) or DMSO (0.5 to 1%) was then added to existing medium, and incubation was continued overnight.\nConditioned media collected from cell cultures grown as in Example 1 was analyzed for vascular endothelial growth factor (VEGF) expression using a QUANTIKINE immunoassay (R&D Systems) according to the manufacturer's instructions. […] Values on the y-axis represent fold-induction relative to control and are reported on a log2 scale, such that a value of 1 represents 2-fold induction."}},
  "data": [
    {"smiles": "O=C(O)c1c[nH]c2c(ccc3cccnc32)c1=O", "note": "[Compound A, 4-oxo-1,4-dihydro-[1,10]phenanthroline-3-carboxylic acid]", "values": [
      {"measurement": "expression of genes encoding glycolytic enzymes (FIG. 7A)", "setting": "[1]; mouse kidney", "result": "increased"},
      {"measurement": "expression of genes encoding angiogenic proteins (FIG. 5A)", "setting": "[1]; mouse lung", "result": "increased"},
      {"measurement": "VEGF expression in conditioned media (FIG. 4A)", "setting": "[2]", "result": "increase in VEGF expression"}
    ]}
  ]
}
